Here are results for four compounds from US8414870B2, “Benzylidene substituted 2,4-pentanedione compounds and use thereof as stabilizers” (Sytheon, Ltd., priority 2010, dated 2013).

Each structure is given as a SMILES string.

The nature of series [1]: Photostabilization of avobenzone in ethanol test solution under sun simulator. In kind it is physicochemical. The protocol: A comparative photostabilization study was conducted comparing the photostabilization efficacy of Synoxy™ AS with Octocrylene and Oxynex® ST in the stabilization of avobenzone. Samples for evaluation were prepared as follows:
Solutions of the photosensitive material and photostabilizer in ethanol were prepared, typically at a 1:1 to 1:5 weight ratio. A base test solution of 3% Avobenzone+5% Octyl salicylate+10% Homoslate in ethanol (the “Test Solution”) was made. Four additional solutions were prepared by adding 2% Synoxyl™ AS, 4% Octocrylene, 2% Oxynex® ST, and 2% Dehydrozingerone, respectively, to four aliquots of the Test Solution.
Samples of each solution were prepared as ultra h n films between two quartz plates so as to obtain a minimum of 90% light transmission over the entire spectrum range of non absorbing chromophores. […] Each sample was then irradiated under sun simulator (754 W/m^2, 2 MED/h, UV dose from 20 to 100 Jules/cm^2) for various durations and light absorption spectra recorded for each sample at given times. The maximal absorption band λmax of each solution was determined before and after irradiation. The amount of the photosensitive materials remaining in solution after irradiation was calculated as the ratio of theft two maximal absorptions.

Series [2] can be described thus: Peroxyl radical antioxidant capacity (ORAC). The conditions noted are these: method of Ou et al. 2001. The text has this: (§1) The antioxidant profile of the compound of Example 1, Synoxyl™ AS, was compared to two widely used commercial antioxidants, natural tocopherol and Oxynex® ST, a proprietary stabilizer based on Diethylhexyl Syringylidene Malonate (DESM), available form EMD Chemicals, Inc., of Gibbstown, N.J., USA. Several test methods were employed.

Series [3] is described as follows: Hydroxyl radical antioxidant capacity. The conditions noted are these: method of Ou et al. 2002.
Excerpt: as §1

A short description of series [4]: Peroxynitrile antioxidant capacity. The conditions noted are these: method of Zhang et al. 2007.
Excerpt: as §1

A short description of series [5]: Superoxide antioxidant capacity. The conditions noted are these: method of Dubost et al. 2007.
Excerpt: as §1

Series [6] is described as follows: Singlet oxygen antioxidant capacity. The following applies: method of Zhang et al. 2009.
Excerpt: as §1

A short description of series [7]: Stabilization of colored shampoo, fluorescent light aging. In kind it is physicochemical. The following applies: 0.4 g in 120 g shampoo, ambient temperature, 4 weeks (unmodified shampoo 21.6). As to the method:
The stabilizer compound according to Example 1, Synoxyl™ AS, was added to a commercial shampoo formulation in order to evaluate its ability to reduce the amount of dye fading following exposure to fluorescent lighting. The sample was prepared by dissolving 0.4 g of Synoxyl™ AS in 5 ml of ethanol and then adding the solution to 120 g of Suave® Natural Fresh Mountain Strawberry Shampoo with agitation and agitated for 15 minutes. A sample of the unmodified shampoo and the modified shampoo are then placed into 20 ml glass scintillation vials. Both sets of vials were weathered under fluorescent light aging at ambient temperature for 4 weeks. The L*a*b coordinates before and after exposure are measured using X-Rite 938 Spectra-densitometer. Color change is expressed as Delta E (ΔE) which is calculated by the formula: ΔE=[(ΔL*)^2+(Δa*)^2+(Δb*)^2]^1/2

Series [8] is described as follows: Photostabilization of water-soluble dyes, solar simulated light. In kind it is physicochemical. The following applies: 0.05% in dye premix; solar simulated light ~40 hours (without stabilizer color lost within about 2 hours). The protocol: The stabilizer compound identified as Synoxyl™ AS according to Example 1 was added to two dye premix formulations as set forth in Table 9 in order to evaluate its ability to reduce the amount of dye fading following exposure to solar simulated light. Control samples without the Synoxyl™ AS were also subjected to the same conditions.

The conditions of series [9]: cited from earlier work.

With `COc1cc(/C=C/C(C)=O)ccc1O` [Dehydrozingerone], the “stabilization of photosensitive compounds” value in series [1] was “fails to stabilize photosensitive compounds”.

Regarding `CCCCC(CC)COC(=O)C(=Cc1cc(OC)c(O)c(OC)c1)C(=O)OCC(CC)CCCC` (stereo not shown) [Oxynex ® ST, Diethylhexyl Syringylidene Malonate], in series [2], the “Peroxyl (ORAC)” value was found to be 550 Trolox equivalent/gm. The compound also showed a Hydroxyl in series [3] of 0 Trolox equivalent/gm. The Peroxynitrile in series [4] amounted to 0 Trolox equivalent/gm. Further, in series [5], the Superoxide is 0 Trolox equivalent/gm. In [6], the Singlet oxygen is 4,532 Trolox equivalent/gm.

Regarding `COc1cc(C=C(C(C)=O)C(C)=O)ccc1O` [Synoxyl ™ AS, 3-(4-Hydroxy, 3-methoxybenzylidene)-2,4-pentanedione], in [2], the “Peroxyl (ORAC)” value was 14,363 Trolox equivalent/gm. In addition, the Hydroxyl in series [3] is 47,180 Trolox equivalent/gm. The same compound had a Peroxynitrile in series [4] of 9 Trolox equivalent/gm. Further, the Superoxide in [5] is recorded as 1,042 Trolox equivalent/gm. Besides, the Singlet oxygen in series [6] is recorded as 13,283 Trolox equivalent/gm. Moreover, the “change in color, Delta E” value in series [7] is 12.3. The dye fading result in [8] was “did not fade”.

For `CC1=C(/C=C/C(C)=C/C=C/C(C)=C/C(=O)O)C(C)(C)CCC1` [tretinoin, all-trans-retinoic acid], in series [9] (chloroform), the solubility in chloroform result is reported as “slightly soluble”. In addition, the solubility in ether result in [9] (ether) is given as “sparingly soluble”. For the same compound, the “solubility in methylene chloride” value in [9] (methylene chloride) is reported as “soluble”.
